# Laboratory results published in US11608341B2, “Substituted tetrahydropyrazolo[3,4-d]pyrimidines and tetrahydropyrazolo[4,3-d]pyrimidines as C5A receptor modulators” (Idorsia Pharmaceuticals Ltd., priority 2018, dated 2023).
# pIC50: −log10 of the molar value.
# Target: T1, C5AR1 (Homo sapiens, UniProt P21730)
# T1 construct: host or cells: CHO-K1
# T1 sequence (P21730 1-350): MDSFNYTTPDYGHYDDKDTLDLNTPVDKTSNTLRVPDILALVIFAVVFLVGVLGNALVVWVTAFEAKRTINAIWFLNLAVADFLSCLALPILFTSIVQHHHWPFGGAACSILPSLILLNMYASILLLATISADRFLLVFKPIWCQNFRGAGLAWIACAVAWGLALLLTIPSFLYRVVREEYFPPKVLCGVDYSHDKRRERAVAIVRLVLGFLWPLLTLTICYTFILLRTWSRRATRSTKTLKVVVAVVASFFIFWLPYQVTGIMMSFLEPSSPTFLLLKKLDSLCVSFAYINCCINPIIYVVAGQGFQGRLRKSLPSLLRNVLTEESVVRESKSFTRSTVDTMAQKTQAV
# Assay: In vitro assay: antagonism of C5a-induced beta-arrestin recruitment (PathHunter) in CHO-K1 C5AR1 beta-arrestin cell line
# Format: cell-based
# Conditions: antagonistic activity, 1-10 nM C5a agonist, geometric mean where several measurements, read-out: C5aR IC50
# Method in brief: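 Antagonist or DMSO added first, then C5a (1-10 nM, added at 6-fold end concentration), 1.5 h at 37 °C. PathHunter detection reagent was added for 45 min at RT before plate reading. IC50s come from antagonist serial dilutions in nmol/l and are geometric means of several measurements.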
row,SMILES,pIC50
1,"Cc1cccc(F)c1N1CCC(N2C(=O)N(Cc3ccccc3C(F)(F)F)c3nn(CC(C)(F)F)cc3C2C)CC1 (single isomer, unassigned) [Example 306]",6.55
2,Cc1cccc(F)c1N1CCC(N2Cc3cn(CC#N)nc3N(Cc3ccccc3C(F)(F)F)C2=O)CC1 [Example 24],7.82
3,Cc1cccc(F)c1N1CCC(N2Cc3cn(CC(C)(C)F)nc3N(Cc3ccccc3C(F)(F)F)C2=O)CC1 [Example 168],8.22
4,COc1ccnc(OC)c1N1CCC(N2Cc3cn(C)nc3N(Cc3ccccc3C(F)(F)F)C2=O)CC1 [Example 95],6.90
5,"Cc1cccc(F)c1N1CCC(N2Cc3cn(C)nc3N(C(C)c3ccccc3C(F)(F)F)C2=O)CC1 (single isomer, unassigned) [Example 247]",7.68
6,Cc1cccc(F)c1N1CCC(N2Cc3cn(CC(C)N)nc3N(Cc3ccccc3C(F)(F)F)C2=O)CC1 (stereo not drawn) [Example 80],6.46
7,Cc1cccc(F)c1N1CCC(N2Cc3cn(C(C)(NC(=O)OC(C)(C)C)C(F)(F)F)nc3N(Cc3ccccc3C(F)(F)F)C2=O)CC1 (stereo not drawn) [Example 83],7.12
8,COc1nccc(C)c1N1CCC(N2Cc3cn(C)nc3N(Cc3ccccc3C(F)(F)F)C2=O)CC1 [Example 54],7.85
9,CCN1CC(n2cc3c(n2)N(Cc2ccccc2C(F)(F)F)C(=O)N(C2CCN(c4c(C)cccc4F)CC2)C3)C1 [Example 103],6.45
10,Cc1cccc(F)c1N1CCC(N2Cc3c(cnn3COCC[Si](C)(C)C)N(Cc3ncccc3C(F)(F)F)C2=O)CC1 [Example 230],7.43
11,Cc1cccc(F)c1N1CCC(N2C(=O)N(Cc3ccccc3C3CC3)c3cn(C4CCCCO4)nc3C2C)CC1 (stereo not drawn) [Example 268],7.14
12,Cc1cccc(F)c1N1CCC(N2Cc3cn(C(=O)OCC(C)C)nc3N(Cc3ccccc3C(F)(F)F)C2=O)CC1 [Example 148],6.47
13,Cn1cc2c(n1)N(Cc1ccccc1C1CC1)C(=O)N(C1CCN(c3c(F)cccc3F)CC1)C2 [Example 285],8.05
14,CCOC(Cn1cc2c(n1)N(Cc1ccccc1C(F)(F)F)C(=O)N(C1CCN(c3c(C)cccc3F)CC1)C2)OCC [Example 28],7.08
15,Cc1cccc(F)c1N1CCC(N2Cc3cn(CC4(O)COC4)nc3N(Cc3ccccc3C(F)(F)F)C2=O)CC1 [Example 171],7.77
16,"Cc1cccc(F)c1N1CCC(N2C(=O)N(Cc3ccccc3C3CC3)c3nn(C)cc3C2C)CC1 (single isomer, unassigned) [Example 317]",7.96
17,Cc1cccc(F)c1N1CCC(N2Cc3cn(C)nc3N(Cc3ncccc3C(F)(F)F)C2=O)CC1 [Example 22],8.00
18,"Cc1cccc(F)c1N1CCC(N2C(=O)N(Cc3ccccc3C(F)(F)F)c3nn(C4CC4)cc3C2C)CC1 (single isomer, unassigned) [Example 309]",7.96
19,"CC1c2c[nH]nc2N(Cc2ccccc2C(F)(F)F)C(=O)N1C1CCN(c2c(F)cccc2Cl)CC1 (single isomer, unassigned) [Example 350]",8.40
20,Cn1cc2c(n1)CN(C1CCN(c3c(F)cccc3OC(F)(F)F)CC1)C(=O)N2Cc1ccccc1C(F)(F)F [Example 270],7.27

row,SMILES,pIC50
1,"Cc1cccc(F)c1N1CCC(N2C(=O)N(Cc3ccccc3C(F)(F)F)c3cn(CC(C)(F)F)nc3C2C)CC1 (single isomer, unassigned) [Example 254]",6.72
2,Cn1cc2c(n1)N(Cc1ccccc1C(F)(F)F)C(=O)N(C1CCN(c3c(F)cccc3Cl)CC1)C2 [Example 272],7.74
3,Cc1cccc(F)c1N1CCC(N2Cc3nn(COCC[Si](C)(C)C)cc3N(Cc3ccccc3C(F)(F)F)C2=O)CC1 [Example 195],7.35
4,"CC1c2cn(C)nc2N(Cc2ccccc2C(F)(F)F)C(=O)N1C1CCN(c2c(F)cccc2C(F)F)CC1 (single isomer, unassigned) [Example 315]",6.44
5,"Cc1cccc(F)c1N1CCC(N2C(=O)N(Cc3ccccc3C(F)(F)F)c3nn(C4CC4)cc3C2C)CC1 (single isomer, unassigned) [Example 310]",7.52
6,Cc1cccc(F)c1N1CCC(N2Cc3cn(CC4CC4)nc3N(Cc3ccccc3C(F)(F)F)C2=O)CC1 [Example 165],8.10
7,CC(=O)N1CCC1Cn1cc2c(n1)N(Cc1ccccc1C(F)(F)F)C(=O)N(C1CCN(c3c(C)cccc3F)CC1)C2 (stereo not drawn) [Example 114],6.97
8,"COc1nccc(C)c1N1CCC(N2C(=O)N(Cc3ccccc3C(F)(F)F)c3cn(C)nc3C2C)CC1 (single isomer, unassigned) [Example 298]",7.54
9,Cc1cccc(F)c1N1CCC(N2Cc3cn(CCN(C)C(C)C)nc3N(Cc3ccccc3C(F)(F)F)C2=O)CC1 [Example 72],7.37
10,COc1nccc(C)c1N1CCC(N2Cc3cn(COCC[Si](C)(C)C)nc3N(Cc3ccccc3C(F)(F)F)C2=O)CC1 [Example 196],7.96
11,"COc1nccc(C)c1N1CCC(N2C(=O)N(Cc3ccccc3C3CC3)c3cn(C4CC4)nc3C2C)CC1 (single isomer, unassigned) [Example 292]",6.29
12,CC(=O)N1CCCC1Cn1cc2c(n1)N(Cc1ccccc1C(F)(F)F)C(=O)N(C1CCN(c3c(C)cccc3F)CC1)C2 (stereo not drawn) [Example 115],6.86
13,Cc1cccc(F)c1N1CCC(N2Cc3cn(C)nc3N(Cc3nnccc3OC(C)C)C2=O)CC1 [Example 267],6.70
14,Cc1cccc(F)c1N1CCC(N2Cc3cn(C[C@@H]4CC(F)(F)CN4C(=O)OC(C)(C)C)nc3N(Cc3ccccc3C(F)(F)F)C2=O)CC1 [Example 109],7.57
15,"Cc1cccc(F)c1N1CCC(N2C(=O)N(Cc3ccccc3C(F)(F)F)c3nn(CC(C)(F)F)cc3C2C)CC1 (single isomer, unassigned) [Example 305]",7.80
16,"COc1nccc(C)c1N1CCC(N2C(=O)N(Cc3ccccc3C(F)(F)F)c3nn(C)cc3C2C)CC1 (single isomer, unassigned) [Example 332]",6.74
17,COc1nccc(C)c1N1CCC(N2Cc3cn(CC4(F)CC4)nc3N(Cc3ccccc3C(F)(F)F)C2=O)CC1 [Example 201],8.22
18,Cc1cccc(F)c1N1CCC(N2Cc3c(cnn3CC(C)(C)F)N(Cc3ccccc3C(F)(F)F)C2=O)CC1 [Example 177],7.32
19,Cc1cccc(F)c1N1CCC(N2Cc3cn(C[C@H]4CCN4C(=O)OC(C)(C)C)nc3N(Cc3ccccc3C(F)(F)F)C2=O)CC1 [Example 129],7.70
20,"Cc1cccc(F)c1N1CCC(N2C(=O)N(Cc3ccccc3C3CC3)c3nn(C)cc3C2C)CC1 (single isomer, unassigned) [Example 318]",6.88

row,SMILES,pIC50
1,Cc1cccc(F)c1N1CCC(N2Cc3cnn(CC4CC4)c3N(Cc3ccccc3C(F)(F)F)C2=O)CC1 [Example 210],7.34
2,COc1nccc(C)c1N1CCC(N2Cc3cn(C4CC4)nc3N(Cc3ccccc3C(F)(F)F)C2=O)CC1 [Example 209],8.30
3,Cc1cccc(F)c1N1CCC(N2Cc3cn(CC(C)(F)F)nc3N(Cc3c(Br)cccc3C(F)(F)F)C2=O)CC1 [Example 214],7.06
4,Cc1cccc(F)c1N1CCC(N2Cc3nn(CC4(C)CC4)cc3N(Cc3ccccc3C(F)(F)F)C2=O)CC1 [Example 180],7.96
5,"CC1c2cn(C3CC3)nc2N(Cc2ccccc2C(F)(F)F)C(=O)N1C1CCN(c2c(F)cccc2Cl)CC1 (single isomer, unassigned) [Example 336]",7.05
6,"Cc1cccc(F)c1N1CCCC(N2Cc3cn(C)nc3N(Cc3ccccc3C(F)(F)F)C2=O)C1 (single isomer, unassigned) [Example 241]",6.95
7,Cc1cccc(F)c1N1CCC(N2Cc3cn(C[C@@H]4CCN4)nc3N(Cc3ccccc3C(F)(F)F)C2=O)CC1 [Example 122],6.47
8,COC[C@@H](O)Cn1cc2c(n1)N(Cc1ccccc1C(F)(F)F)C(=O)N(C1CCN(c3c(C)cccc3F)CC1)C2 [Example 46],7.68
9,COC(=O)N1CC(n2cc3c(n2)N(Cc2ccccc2C(F)(F)F)C(=O)N(C2CCN(c4c(C)cccc4F)CC2)C3)C1 [Example 117],7.48
10,COc1cccnc1N1CCC(N2Cc3cn(C)nc3N(Cc3ccccc3C(F)(F)F)C2=O)CC1 [Example 70],6.29
11,CNc1ccc(C(F)(F)F)c(CN2C(=O)N(C3CCN(c4c(C)cccc4F)CC3)Cc3cn(C)nc32)n1 [Example 51],7.34
12,COC(=O)N1CC[C@H]1Cn1cc2c(n1)N(Cc1ccccc1C(F)(F)F)C(=O)N(C1CCN(c3c(C)cccc3F)CC1)C2 [Example 123],7.72
13,"CC1c2nn(C3CC3)cc2N(Cc2ccccc2C(F)(F)F)C(=O)N1C1CCN(c2c(F)cccc2Cl)CC1 (single isomer, unassigned) [Example 328]",8.00
14,COc1cccc(C)c1N1CCC(N2Cc3cn(C)nc3N(Cc3ccccc3C(F)(F)F)C2=O)CC1 [Example 48],7.74
15,CCc1cccc(F)c1N1CCC(N2Cc3cn(C)nc3N(Cc3ccccc3C(F)(F)F)C2=O)CC1 [Example 299],6.40
16,Cc1cccc(F)c1N1CCC(N2Cc3cn(CC(C)C#N)nc3N(Cc3ccccc3C(F)(F)F)C2=O)CC1 (stereo not drawn) [Example 43],7.74
17,Cc1cccc(F)c1N1CCC(N2Cc3cn(CCO)nc3N(Cc3ccccc3C(F)(F)F)C2=O)CC1 [Example 20],7.92
18,Cc1cccc(F)c1N1CCC(N2Cc3cn(CCN4CCN(C)CC4)nc3N(Cc3ccccc3C(F)(F)F)C2=O)CC1 [Example 65],6.92
19,Cc1cccc(F)c1N1CC(N2Cc3cn(C)nc3N(Cc3ccccc3C(F)(F)F)C2=O)C1 [Example 264],6.67
20,Cc1cccc(F)c1N1CCC(C)(N2Cc3cn(C)nc3N(Cc3ccccc3C(F)(F)F)C2=O)CC1 [Example 217],7.96
